Here are results for 19 molecules from ChEMBL document CHEMBL4602636, “Synthesis and in vitro antitumor evaluation of honokiol derivatives” (Bioorg Med Chem Lett, 2020).

For assay [1], the system named is MCF7. Put plainly: Antiproliferative activity against human MCF7 cells assessed as growth inhibition after 72 hrs by MTT assay. Type of assay: functional, cell-based. As to conditions: MCF7, 72 h. For orientation: Tetrazolium dyes change colour on reduction, which living cells bring about.
Assay [2] concerns I10. In words: Antiproliferative activity against mouse I10 cells assessed as growth inhibition after 72 hrs by MTT assay. As to conditions: I10, 72 h. Type of assay: functional, cell-based.
Assay [3] has as its system CNE2Z. Put plainly: Antiproliferative activity against human CNE2Z cells assessed as growth inhibition after 72 hrs by MTT assay. Type of assay: functional, cell-based.
In assay [4] the test system is I10. Put plainly: Antiinvasive activity against mouse I10 cells incubated for 36 hrs under hypoxia condition by crystal violet staining based transwell assay. It counts as functional, cell-based.
For assay [5], the system named is I10. Put plainly: Inhibition of cell migration in mouse I10 cells at 10 uM after 24 hrs under hypoxia condition by scratch wound healing assay. Type of assay: functional, cell-based.
Assay [6] has as its system I10. In words: Antiproliferative activity against mouse I10 cells at 2.5 to 20 uM by MTT assay. It counts as functional, cell-based. As to conditions: TDE = time-dependent effect.
In assay [7] the test system is I10. In words: Inhibition of cell migration in mouse I10 cells after 24 hrs under hypoxia condition by scratch wound healing assay. Type of assay: functional, cell-based.
For assay [8], the system named is I10. Put plainly: Downregulation of MMP-2 expression in mouse I10 cells at 20 uM after 24 hrs Western blot analysis. It counts as functional, cell-based.
The test system of assay [9] is I10. In words: Antiproliferative activity against mouse I10 cells after 24 to 72 hrs by MTT assay. Type of assay: functional, cell-based.
In assay [10] the test system is I10. Put plainly: Downregulation of MMP-9 expression in mouse I10 cells at 20 uM after 24 hrs Western blot analysis. It counts as functional, cell-based. (Immunoblotting shows a protein as a band on a membrane.)
Assay [11] has as its system I10. In words: Downregulation of HIF1alpha expression in mouse I10 cells at 20 uM after 24 hrs Western blot analysis. It counts as functional, cell-based.
Assay [12] concerns I10. Put plainly: Antiinvasive activity against mouse I10 cells assessed as reduction in number of invaded cells at 2.5 uM after 36 hrs under hypoxia condition by crystal violet staining based transwell assay. Type of assay: functional, cell-based.
Assay [13] deals with I10. Put plainly: Antiproliferative activity against mouse I10 cells at 20 uM after 24 to 72 hrs by MTT assay relative to control. Type of assay: functional.

Calls of active or inactive are those of the source. The calls are words filed in the database; no cut-off is given here.

A word on the IC50: it is the concentration that gives 50% inhibition.

As to `C=CCc1ccc(O)c(-c2ccc(OCc3c(Cl)cccc3Cl)c(CC=C)c2)c1`, the IC50 was 11.5 µM in assay [1], 16.6 µM in [2] and 16.4 µM in [3].

With `C=CCc1ccc(OCc2ccccc2)c(-c2ccc(O)c(CC=C)c2)c1`, the IC50 amounted to 22.3 µM in assay [1], 21.8 µM in assay [2] and 24 µM in assay [3].

In the case of `C=CCc1ccc(OCc2ccc(Cl)c(Cl)c2)c(-c2ccc(O)c(CC=C)c2)c1`, the IC50 in assay [1] was found to be 17.5 µM; in assay [2], 12.2 µM; in assay [3], 14.2 µM.

Regarding `C=CCc1ccc(OCc2ccc(Cl)cc2Cl)c(-c2ccc(O)c(CC=C)c2)c1`, the IC50 in [1] is 27.4 µM; in assay [2], 21.1 µM; in assay [3], 24.2 µM.

With `C=CCc1ccc(OCc2c(Cl)cccc2Cl)c(-c2ccc(O)c(CC=C)c2)c1`, the IC50 in assay [1] was 19.4 µM; in assay [2] it was 17.2 µM; in assay [3], 19.9 µM.

As to `C=CCc1ccc(OC)c(-c2ccc(OC)c(CC=C)c2)c1`, the IC50 in [1], in [2] and in assay [3] was above 50 µM throughout.

In the case of `C=CCc1ccc(OCc2ccccc2)c(-c2ccc(OCc3ccccc3)c(CC=C)c2)c1`, the IC50 in [1], in assay [2] and in [3] was above 50 µM throughout.

As for `C=CCc1ccc(O)c(-c2ccc(O)c(CC=C)c2)c1` [HONOKIOL], the IC50 in assay [1] worked out at 41.8 µM; in assay [2], 31.1 µM; in assay [3], 31.3 µM.

Turning to `C=CCc1ccc(OCC)c(-c2ccc(OCC)c(CC=C)c2)c1`, the IC50 in assay [1], in [2] and in assay [3] was above 50 µM throughout.

`C=CCc1ccc(OC)c(-c2ccc(O)c(CC=C)c2)c1`: the IC50 in assay [1] was 37.5 µM; in assay [2] it was 38 µM; in assay [3] it was 30.3 µM.

As for `C=CCc1ccc(O)c(-c2ccc(OCc3ccccc3)c(CC=C)c2)c1`, the IC50 is 23.2 µM in [1], 29.8 µM in assay [2] and 30.3 µM in [3].

For `C=CCc1ccc(OCc2ccc(Cl)cc2Cl)c(-c2ccc(OCc3ccc(Cl)cc3Cl)c(CC=C)c2)c1`, the IC50 in [1], in [2] and in assay [3] was above 50 µM throughout.

For `C=CCc1ccc(OCc2ccc(Cl)c(Cl)c2)c(-c2ccc(OCc3ccc(Cl)c(Cl)c3)c(CC=C)c2)c1`, the IC50 in assay [1], in assay [2] and in assay [3] was above 50 µM throughout.

Regarding `C=CCc1ccc(O)c(-c2ccc(OC)c(CC=C)c2)c1` [METHYLHONOKIOL], the IC50 in [1] was 24.7 µM; in [2], 26.5 µM; in [3], 25.5 µM.

With `C=CCc1ccc(OCc2c(Cl)cccc2Cl)c(-c2ccc(OCc3c(Cl)cccc3Cl)c(CC=C)c2)c1`, the IC50 in [1], in [2] and in assay [3] was above 50 µM in each case.

In the case of `C=CCc1ccc(O)c(-c2ccc(OCc3ccc(Cl)cc3Cl)c(CC=C)c2)c1`, the Activity result in assay [4] was “Dose-dependent effect”; in assay [6], “Tde”; in assay [9], “Dose-dependent effect”; in assay [13], 100%. The inhibition result in [5] was “Active”. For the same molecule, the inhibition result in assay [7] is “Dose-dependent effect”. Further, the outcome in assay [8], in assay [10], in [11] and in assay [12] was Active. Also, the IC50 came to 14.7 µM in [1], 10.4 µM in assay [2] and 11.3 µM in assay [3].

For `C=CCc1ccc(OCC)c(-c2ccc(O)c(CC=C)c2)c1`, the IC50 in [1] was determined as 19.9 µM; in assay [2], 24.7 µM; in [3], 20.4 µM.

With `C=CCc1ccc(O)c(-c2ccc(OCc3ccc(Cl)c(Cl)c3)c(CC=C)c2)c1`, the IC50 in assay [1] turned out to be 15.3 µM; in assay [2], 12.3 µM; in assay [3], 17.8 µM.

In the case of `C=CCc1ccc(O)c(-c2ccc(OCC)c(CC=C)c2)c1`, the results for the IC50 in assay [1], in [2] and in assay [3] were 26.3 µM, 21.4 µM and 24.1 µM, respectively.
